Drawing on ChEMBL document CHEMBL1150458, “A highly potent series of fluoroalkyl benzoxazine pyridine-N-oxide potassium channel openers” (Bioorg Med Chem Lett, 1993), this text covers IC50, Blood pressure and Increase for 6 molecules.

Format in all cases: functional
The species entered for assay [1] is Cavia porcellus. Description: The compound was tested for hypotensive activity against guinea pig detrusor (bladder) strip mildly depolarized with 15 mM KCl.
For assay [2], the species on record is Cavia porcellus. Description: The compound was tested for hypotensive activity against guinea pig vascular tissue (portal vein) strip mildly depolarized with 15 mM KCl.
The next assay has as its system Rattus norvegicus. Briefly: Tested for lowering of blood pressure in spontaneously hypertensive rat model upon oral administration at 5 ug/kg.
For assay [3], the species on record is Cavia porcellus. Description: Tested for percent increase of efflux rate constant of 0.233 uM of compound using guinea pig detrusor.

One may read the IC50 as the concentration needed to halve the response being measured. A lower IC50 goes with inhibition by little substance. In the assay filed under Cavia porcellus [1], `C[C@@]1(C(F)(F)F)CN(c2cccc[n+]2[O-])c2cc(S(=O)(=O)c3ccccc3)ccc2O1` came in with an IC50 of 0.28 nM.
In the assay listed under Cavia porcellus [1], `C[C@]1(C(F)(F)F)CN(c2cccc[n+]2[O-])c2cc(S(=O)(=O)c3ccccc3)ccc2O1` gave an IC50 of 0.68 nM.
As for `O=[N+]([O-])c1ccc2c(c1)N(c1cccc[n+]1[O-])CC(C(F)F)(C(F)F)O2`, it took 0.6 nM to reach half-maximal inhibition in the assay filed under Cavia porcellus [2] (IC50). The molecule further registered a Blood pressure in the assay on Rattus norvegicus of 35 mmHg. In the assay filed under Cavia porcellus [3], this molecule yielded an Increase of 40.5%.
Take `CC1(C)CN(c2cccc[n+]2[O-])c2cc(S(=O)(=O)c3ccccc3)ccc2O1`: the midpoint of inhibition in the assay filed under Cavia porcellus [1], the IC50, lay at 4.1 nM.
`CC1(C)CN(c2cccc[n+]2[O-])c2cc([N+](=O)[O-])ccc2O1` had a half-inhibitory concentration (IC50) in the assay filed under Cavia porcellus [1] of 74 nM.
Same read-out and setting: next, `CC1(C(F)(F)F)CN(c2cccc[n+]2[O-])c2cc(S(=O)(=O)c3ccccc3)ccc2O1` (racemic): 0.54 nM.
